Reference: patent US20230067910A1, “NOVEL COMPOUNDS FOR THE DIAGNOSIS, TREATMENT AND PREVENTION OF DISEASES ASSOCIATED WITH THE AGGREGATION OF ALPHA-SYNUCLEIN” (MODAG GMBH, priority 2019, published 2023)
Values joined by “and” are separate entries in the source; they are usually repeats but may differ in a detail not shown here. Equal entries are not always repeated. Where two headings read alike, the source gives them in different places.

Legend:
[1] = molecular target: T1, aggregated alpha-synuclein (Homo sapiens, UniProt P37840); test: Modified saturation binding assay, protocol 2b, alpha-synuclein fibrils; conditions: saturation assay protocol 2b, sonicated fibrils 15 nM/well
T1 construct: made in house; host or cells: E. coli
Method: Alpha-synuclein and tau46 were purified from E. coli according to established protocols (Nuscher B, et al., J. Biol. Chem., 2004; 279(21):21966-75), Aβ1-42 was obtained from rPeptide, Watkinsville, Ga., USA. Fibrils were prepared by aggregation of recombinant protein via constant agitation. In detail, 70 μM of alpha-synuclein mixed with 100 mM NaCl in 50 mM Tris, pH 7.0+0.02% NaN3 were incubated at 1,400 rpm, 37° C. for 96 h. 10 μM of tau46 were incubated with 0.03 mg/ml heparin in 50 mM Tris, pH=7.0 at 1,000 rpm, 37° C. for 72 h. […]
For saturation binding assays, a fixed concentration of sonicated human recombinant αSYN (15 nM/well) or tau46 (250 nM/well) or Aβ1-42 (1 μM/well) fibrils diluted in phosphate buffered saline (PBS) were incubated in low binding plates (96 well micro test plate, Ratiolab GmbH, Dreieich, Germany) with [H]-compound 1 or [PH]-compound 2 at increasing concentrations (from 0.05 nM to 12 nM/24 nM) in 30 mM Tris HCl, 10% ethanol, 0.05% Tween20, pH 7.4 (hereafter referred to as incubation buffer) in a total volume of 200 μL/well. Non-specific binding of the radiotracer was determined by coincubation with 400 nM non-labeled compound 1 or compound 2. The optimal fibril concentrations were determined using a concentration determination assay. […]

[2] = molecular target: T2, alpha-synuclein (fibrils) (Homo sapiens, UniProt P37840); test: Competition binding assay, protocol 3a, reference ligand [3H]-compound 1, alpha-synuclein fibrils; conditions: reference ligand [3H]-compound 1 (1 nM)
T2 construct: made in house; host or cells: E. coli
Method: Alpha-synuclein and tau46 were purified from E. coli according to established protocols (Nuscher B, et al., J. Biol. Chem., 2004; 279(21):21966-75), Aβ1-42 was obtained from rPeptide, Watkinsville, Ga., USA. Fibrils were prepared by aggregation of recombinant protein via constant agitation. In detail, 70 μM of alpha-synuclein mixed with 100 mM NaCl in 50 mM Tris, pH 7.0+0.02% NaN3 were incubated at 1,400 rpm, 37° C. for 96 h. 10 μM of tau46 were incubated with 0.03 mg/ml heparin in 50 mM Tris, pH=7.0 at 1,000 rpm, 37° C. for 72 h. Aβ1-42 was solved in 20 mM NaPi, pH=8.0+0.2 mM EDTA+0.02% NaN3 (Deeg A A, et al., Biochim. Biophys. Acta, 2015; 1850(9): 1884-90; Goedert M, et al. Nature, 1996; 383(6600): 550-3).
A fixed concentration of sonicated human recombinant αSYN (200 nM/well) or tau46 (208 nM/well) fibrils diluted in phosphate buffered saline (PBS) were incubated in low binding plates (96 well micro test plate, Ratiolab GmbH, Dreieich, Germany) together with 1 nM [^3H]-compound 1 and 1:4 serial dilutions of the cold compound of interest starting from 1 μM diluted in 50 mM Tris-base, 10% EtOH, 0.05% Tween20, pH 7.4. For the calculation of Ki values the KD value of compound 1 toward sonicated human recombinant αSYN fibrils was set to 3 nM.
Assay plates were incubated under agitation at 37° C. for 2 h covered by plastic foil (Resealable tape, PerkinElmer, Waltham, Mass., USA). Prior to harvesting, a filter (Printed filtermat B, PerkinElmer, Waltham, Mass., USA) was incubated with 5 mg/mL polyethylenimine (PEI, Poly(ethyleneimine) solution, Sigma Aldrich Chemie GmbH, Taufkirchen, Germany) at 4° C. for 30 min. After incubation, bound and free ligands were separated by vacuum filtration using a harvester (Filtermate harvester, PerkinElmer, Waltham, Mass., USA). The filter was washed three times with buffer cooled to 4° C. and subsequently dried in the microwave for 2 min at medium power. The filter was sealed in a plastic bag (Sample bag for MicroBeta®, PerkinElmer, Waltham, Mass., USA) together with added scintillator (BETAPLATE SCINT, PerkinElmer, Waltham, Mass., USA). Accumulation of tritium was counted in a liquid scintillation counter (Wallac MicroBeta® TriLux, 1450 LSC & Luminescence Counter, PerkinElmer, Waltham, Mass., USA) immediately. Radioactivity was plotted against the increasing tritium-labeled compound or cold compound concentrations. Data points were fitted using nonlinear regression analysis in GraphPad Prism (GraphPad Software, Inc., Version 7.03, La Jolla, Calif., USA).
The fibril competition assay provides Ki values. Ki is a quantitative measure that represents the concentration of the non-radioactive tested compound (competitor ligand) required to replace 50% of a reference compound, in this case [H]-compound 1 (1 nM) or [H]-compound 2 (1 nM), which is bound to the target structures (1 nM), in our case recombinant alpha-synuclein and tau46 fibrils. This assay is suitable for a screening of non-radioactive ligands.

[3] = molecular target: T3, alpha-synuclein (sonicated fibrils) (Homo sapiens, UniProt P37840); test: Modified competition binding assay, protocol 3b, reference ligand [3H]-compound 2; conditions: Table 5, reference ligand [3H]-compound 2 (1 nM)
T3 construct: made in house; host or cells: E. coli
In short: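 Sonicated recombinant human αSYN fibrils (15 nM/well) incubated with 1 nM [3H]-compound 2 and serially diluted unlabeled competitor in 30 mM Tris-HCl, 10% ethanol, 0.05% Tween20, pH 7.4, 4.5 h at RT. Filtration readout; IC50 by non-linear regression, Ki calculated using KD 0.2 nM.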

[4] = Experiment B, read-out: Ki (nM) alpha-synuclein (sonicated fibrils)

Kd [1] [nM]	Ki [2, 4] [nM]	Ki ([2]; Experiment A, read-out: Ki (nM) alpha-synuclein (fibrils))	Ki [3] [nM]	Structure (SMILES)
0.2	< 2	–	–	CNc1ccc(-c2cc(-c3ccnc(Br)c3)[nH]n2)cc1 [Compound 2, 4-[5-(2-bromopyridin-4-yl)-1H-pyrazol-3-yl]-N-methylaniline]
–	9	47 nM and 42 nM	3.4	Fc1cc(-c2cc(-c3ccc4c(c3)OCO4)n[nH]2)ccn1 [Compound 12, 4-[3-(1,3-benzodioxol-5-yl)-1H-pyrazol-5-yl]-2-fluoropyridine]
0.6	–	–	0.1	CN(C)c1ccc(-c2cc(-c3ccnc(Br)c3)[nH]n2)cc1 [Compound 1, 4-[3-(4-dimethylamino-phenyl)-1H-pyrazol-5-yl]-2-bromopyridine]
